The source of these data is US20260216143A1, “PHARMACEUTICAL COMPOSITION FOR TREATING CHRONIC KIDNEY DISEASE” (priority 2020, published 2026).

SMILES strings stand for the structures.

In test [1] the test system is Alport syndrome model (129-Col4a3tm 1Dec/J) mice. The test can be described thus: Body weight of Alport syndrome (AS) mice (Example 2). In kind it is in vivo, mouse. The following applies: FIG. 16; groups receiving a DHA ethyl ester; p<0.01, t test. The protocol:
Body weight was measured using a scale for animals twice weekly from the grouping day and daily from the day of the first animal death until the sampling day of each group.
Animals were restrained, and a test substance was administered directly into the stomach using a 1-mL syringe and a sonde (Fuchigami Kikai, CAT No. 5200). Administration was performed in accordance with the conditions described in Section 5.1., so that a volume of 5 mL/kg should be administered to each animal. The volume administered was calculated on the basis of the most recent (before the administration day) body weight.
The mean and standard error of the body weight and the wet weight of each organ were calculated for each study group. Further, each of the measured values was compared between the Group Number (2) and each of other groups. A statistical analysis add-in software “Excel Statistics 2015” (Social Survey Research Information Co., Ltd.) was used for statistical processing, and a significant difference was determined with a […] (p value)<0.05.

Test [2] has as its system Alport syndrome model (129-Col4a3tm1Dec/J) mice. Nature of the test: Survival of Alport syndrome model mice, oral repeated administration (Example 1). Type of test: in vivo, mouse. Conditions: Pirespa 100 mg/kg/day, FIG. 1. The protocol: Each test substance is orally and repeatedly administered to Alport syndrome model (129-Col4a3tm1Dec/J) mice for 10 weeks, and then a serum biochemistry test is performed. The kidneys are further observed histopathologically to examine the effect of administration of each test substance on the kidneys.
Test substances were prepared for each use before use on the experiment day. Candesartan was dissolved at a dose of 4 mg/mL in phosphate-buffered saline (hereinafter referred to as PBS) to prepare a dosing solution (10 mg/2.5 mL/kg) for Group Numbers 6 and 7. A solution was prepared by diluting this dosing solution with an equal amount of PBS as a dosing solution (10 mg/5 ml/kg) for Group Number 3. Pirespa was dissolved at a dose of 40 mg/mL in PBS and dissolved in PBS which was to be a dosing solution (50 mg/1.25 mL/kg) for Group Number 6. A solution was prepared by diluting this dosing solution with an equal amount of PBS as a dosing solution (50 mg/2.5 mL/kg) for Group Number 4. Lotriga was suspended at a dose of […] in a 0.5% methylcellulose solution (hereinafter referred to as MC) to prepare a dosing solution (1500 mg/2.5 mL/kg) for Group Number 7. […]
Animals were restrained, and a test substance was orally administered using a 1-mL syringe and a sonde. […] The volume administered was calculated on the basis of the most recent body weight. […]

For test [3] the test system is unchanged. The test can be described thus: Body weight of Alport syndrome model mice (Example 1). Type of test: in vivo, mouse. The following applies: FIG. 2; body weight immediately before death used for dead mice; candesartan 10 mg/kg, Lotriga 1500 mg/kg.
Description: Body weight was measured using a scale for animals twice weekly from the grouping day and on the sampling day of each group.
Animals were restrained, and a test substance was orally administered using a 1-mL syringe and a sonde. Administration was performed in accordance with the conditions described in Section 5.1., so that a volume of approximately 0.1 mL should be administered to each animal. The volume administered was calculated on the basis of the most recent body weight. […] The administration interval was 6 hours or longer.
Of note, when the mean body weight was calculated, the body weight of a dead mouse was not assumed as zero, and the body weight measured immediately before death was used for calculation.
The test system is the same in test [4]. Type of test: in vivo. Conditions: FIG. 4. The method, then:
(§1) The body weights of animals were measured at Day 45, blood was drawn from the caudal vena cava under anesthesia with isoflurane, and animals were euthanized by exsanguination. Death was confirmed by visually observing cardiopulmonary arrest (euthanasia). Then, the left and right kidneys, the left and right femurs, the left and right eyeballs, the cochlea, the heart, and the pancreas were collected and trimmed, and the wet weights of the left and right kidneys, the left and right femurs, and the heart were measured. Among the collected biotissues, the left and right femurs were immersed in a 70% ethanol solution. Other tissues were immersed in a 10% neutral buffered formalin solution. Of note, the right kidney was divided into two at the renal pelvis and immersed after to obtain kidney specimens.
The obtained blood was allowed to stand at room temperature for at least four hours and centrifuged under conditions of 4° C., 12000 rpm, and 3 min to obtain serum. Serum was divided into two tubes and frozen.
Blood biochemistry test items were measured using the frozen serum delegated to the external facility. The measurement items were total protein, albumin, blood urea nitrogen (BUN), creatinine (CRE), uric acid, sodium (Na), potassium (K), chloride (CI), calcium, phosphorus, amylase, lipase, AST (GOT), ALT (GPT), Y-GTP, LDH, triglyceride, total cholesterol, HDL cholesterol, total bilirubin, and glucose. Pooled specimens of each group were used for measurement.

Test [5] shares this test system. Nature of the test: Histopathological test of the kidneys: HE, PAS, MT, PAM staining and damage scoring (Example 1). In kind it is in vivo, mouse. The protocol: as §1
The kidneys immersed in a 10% neutral buffered formalin solution were sent to the external facility, and Hematoxylin-Eosin (HE) staining, Periodic Acid-Schiff (PAS) staining, Masson's Trichrome (MT) staining, and Periodic Acid Methenamine silver (PAM) staining were performed for pathological assessment.
The severity of glomerular damage was assessed in each group of Alport syndrome model mice. Specifically, the severity was quantified for glomerulosclerosis, crescent formation, and basement membrane with a double contour with five levels (0, no change; 1, slight; 2, mild; 3, moderate; 4, severe. Refer to “Guidance on pathological diagnosis of diabetic nephropathy and hypertensive nephrosclerosis,” Tokyo Igakusha).
The severity of renal tubular damage was assessed in each group of Alport syndrome model mice. Specifically, the severity was quantified for renal tubular expansion accompanied by hyaline casts, interstitial fibrosis, inflammatory cell infiltration into the interstitium, and renal tubular expansion accompanied by cellular casts with five levels (0, no change; 1, slight; 2, mild; 3, moderate; 4, severe. Refer to “Guidance on pathological diagnosis of diabetic nephropathy and hypertensive nephrosclerosis,” Tokyo Igakusha).

The test system of another test is Col4a3−/− mice. Conditions: cited from earlier work.
Setting [6] is: serum, pooled specimens per group, Day 45.

`CC/C=C\C/C=C\C/C=C\C/C=C\C/C=C\C/C=C\CCC(=O)OCC` [DHA ethyl ester, docosahexaenoic acid ethyl ester]: in test [1], the “mean body weight vs untreated group” value is given as “significantly increased as compared with the untreated group”.
For `Cc1ccc(=O)n(-c2ccccc2)c1` [Pirespa], in test [2] (up to Day 45, candesartan 10 mg/kg, Lotriga 1500 mg/kg), the “survival (in words)” value is recorded as “all mice died early”.
On to `CCOc1nc2cccc(C(=O)OC(C)OC(=O)OC3CCCCC3)c2n1Cc1ccc(-c2ccccc2-c2nn[nH]n2)cc1` (stereo not drawn) [candesartan, Candesartan cilexetil], for which the survival rate in test [2] (Day 45 (end of study), candesartan 10 mg/kg once daily, Lotriga 1500 mg/kg once daily) turned out to be 40%. For the same molecule, the “changes with time in the mean body weight” value in test [3] was “body weight loss began from 25 days after administration, and marked body weight loss was also observed in surviving mice”. The “progression of renal failure” value in test [4] (judged from blood biochemistry) is recorded as “at a level comparable to that in the untreated group”. In test [4] (setting [6]), the BUN level entry was “very high and as high as in the untreated group”; the K level result was “development of hyperkalemia”; the creatinine level result is “very high and as high as in the untreated group”. Moreover, the “kidney histopathology, HE staining findings” value in test [5] (FIG. 7) is “adhesion to the glomerulus due to glomerulosclerosis and crescent formation, renal tubular expansion, and lymphocyte infiltration into the interstitium were observed at various sites”. Also, the “kidney histopathology, PAS staining findings” value in test [5] (FIG. 8) is “glomerulosclerosis, in which PAS-positive substances were deposited on the mesangial substrate, and growth of crescent cells were observed”. Besides, the “kidney histopathology, MT staining (fibrosis)” value in test [5] (FIG. 9) is “Fibrosis was observed in an area of crescent hyperplasia and in the renal tubular interstitium”. Also, in test [5] (FIG. 10), the “kidney histopathology, PAM staining (double contour of the loop wall)” value is recorded as “A double contour of the loop wall was observed”. In the test on Col4a3−/− mice, the serum urea concentration result is “markedly decreased”, the survival time result is listed as “significantly prolonged” and the urine protein level entry is “markedly decreased”.
Turning to `CCOC(=O)[C@H](CCc1ccccc1)N[C@@H](C)C(=O)N1[C@H](C(=O)O)C[C@@H]2CCC[C@@H]21` [ramipril], in the test with Col4a3−/− mice, the serum urea concentration result is reported as “markedly decreased”, the survival time entry is “significantly prolonged” and the urine protein level result is given as “markedly decreased”.
